Assays:
RISS mice = test: RISS (repeated and intermittent sound stress) model, sensory testing (von Frey, muscle withdrawal threshold, Hargreaves); format: in vivo; details: darapladib 10 mg/kg i.p. once daily throughout the RISS procedure, vs vehicle; FIG. 3N
Text: Sound stressors were applied as described^14, 43 with modification. Mice were placed (3 per cage) in a 20×30×15 cm bedding cage, which was kept 25 cm below a speaker, inside a 40×50×35 cm sound-insulated box. A speaker emitted pure tones at 5 frequencies (5, 11, 13, 15 and 19 kHz) with random amplitudes varied over time for each frequency (0, 20, 60, 90, and 100 dB sound). Each tone stimulus lasted for 5 or 10 sec in random order, and mice were stimulated continuously without interval. The sound stressors continued for 30 min as a set. In the original SS (sound stress) protocol, a set of 30-min stimuli was given once a day on days 1, 3, and 4 (FIG. 1A)^14. The RISS model intensified the stress protocol by increasing the stimulus frequency: a set of sound stimulus was repeated every 3 hours for 6 times overnight (from 16:00 to 10:00), followed by resting silence for 6 hours (from 10:00 to 16:00). The procedure was repeated on days 1, 3, and 4 as for the SS protocol. The control groups were placed in similar chambers for 4 days without stress exposure. Both groups of mice had access to food and water freely during the stress period. After the stimulus procedure, mice were returned to their original home cages in the animal care facility. In both the SS and RISS protocols, the day after completing the stress stimuli is called P0; the post-stress day 1, P1; and so on. In the experimental design of the […] single-day stimuli of intermittent SS (SISS), the day after SISS is called P′0; the post-stress day 1, P′1; and so on.
Animals were placed on an elevated mesh platform, and a 0.2-mN von Frey filament was applied to the plantar surface of both hind paws. A positive response was defined as lifting, shaking, guarding, or licking paws when the stimulus was applied. For each paw, the filament was applied 5 times at 30-sec intervals.
Mice were placed individually in Acrylic cubicles mounted on a glass surface maintained at 30° C. The test was performed after acclimatization. The thermal stimulus of the radiant heat was then applied to the plantar surface of each hind paw. Each mouse was tested in three sequential trials with an interval of 2-3 min. The assay cutoff was set at 30 sec to prevent tissue damage. Paw withdrawal latencies were calculated as the mean of three measures.
Muscle withdrawal thresholds were evaluated as described^46. […]
Analgesic drugs: Pregabalin (0.3, 1, 3 or 10 mg/kg bodyweight, i.p.; Toronto Research Chemicals), morphine (0.3, 1, 3 or 10 mg/kg bodyweight, i.p.), diclofenac (1, 3 or 10 mg/kg bodyweight, i.p.; Sigma-Aldrich) or vehicle (0.9% saline) was administered, and the effect of each drug was evaluated by testing 6 mice. […]

LPC16:0 = test: Serum LPC16:0 level in RISS mice at P0 by mass spectrometry; format: in vivo; details: darapladib 10 mg/kg i.p. once daily, P0, triple quadrupole MS, vs vehicle; FIG. 3N
Method: Antioxidants: Systemic administration of NAC (200 mg/kg bodyweight, i.p.; Sigma-Aldrich) with Tempol (100 mg/kg bodyweight, i.p.; Sigma-Aldrich) or vehicle (phosphate buffered saline; PBS) was given 30 min before and after each RISS procedure at days 1, 3 and 4 (FIG. 3M)^48-50. A total of 6 doses of drug were given during the RISS protocol. Sensory testing was performed 1 hour after the last drug injection at P0 and at P4 and P7. PAF-AH inhibitors. Darapladib (Cayman, Ann Arbor, Mich.) was solubilized in DMSO: PBS containing 1% methyl-β-cyclodextrin (1:99) and given once daily by i.p. injection at 10 mg/kg body weight. Mice were randomly assigned to receive vehicle or darapladib for 5 consecutive days during RISS (FIG. 3M). […] Triple quadrupole mass spectrometry (QqQ MS) for absolute quantitative analysis of target lipids. Targeted analysis of LPC16:0, LPC18:0 and SM(d18:1/18:0) was measured by using an Agilent-1200 liquid chromatography system coupled to an Agilent-6410 QqQ MS with an ESI interface. […] Lipidomic profiling for relative quantitative analysis. Lipids were identified by comparing the LC/MS profiles of the metabolites of interest to that of a standard compound analyzed with identical conditions, and their relative abundance among samples was further evaluated. […] Collected data were processed with Progenesis QI (Waters) for lipid identification and relative quantitative analysis.

For `CCN(CC)CCN(Cc1ccc(-c2ccc(C(F)(F)F)cc2)cc1)C(=O)Cn1c(SCc2ccc(F)cc2)nc(=O)c2c1CCC2` [darapladib, N-[2-(diethylamino)ethyl]-2-{2-[(4-fluorobenzyl)sulfanyl]-4-oxo-4,5,6,7-tetrahydro-1H-cyclopenta[d]pyrimidin-1-yl}-N-{[4′-(trifluoromethyl)biphenyl-4-yl]methyl}acetamide], the “development of RISS-induced chronic hypersensitivity (von Frey test)” value (RISS mice) was “prevented the development of chronic hypersensitivity” and the “LPC16:0 production after RISS (serum level)” value (LPC16:0) was “significantly reduced”.
